According to US20240317816A1, “PEPTIDES FOR IMMUNOTHERAPY” (Genevive, Inc., priority 2021, published 2024):

Key:
[1] = tested on: RENCA cells; assay: RENCA re-challenge study; assay type: in vivo, Balb/c mice
Experimental: Additional studies were performed to test survival and tumor volume responses to a re-challenge event. In one study, mice were allocated into dosing groups when tumors reached ˜100 mm^3. During the initial dosing study, time 0 was the first day of seven days of dosing. […] Re-implantation was completed on day 39 after dosing completion. Treated mice were tumor free for >20 days before being re-challenge. […] Tumor volume and survival was monitored as previously described. In the re-challenge experiment, time 0 is day 10 after re-challenge dosing.

[2] = tested on: Chemokine receptors; assay: LRC-TriCEPS LC-MS/MS identification of binding partners; settings: living cells, LRC-TriCEPS crosslinker
Experimental: SG-3-00802 binding partners were identified using the mass spectrometry-based proteomics (LC MS/MS)-based LRC-TriCEPS™ technology from DualSystems. To enrich for binding partners the ligand was coupled with the LRC-TriCEPS™ crosslinker and incubated with living cells that expressed target receptors. The enriched proteins were purified and processed for analysis by LC-MS/MS. A parallel experiment using transferrin as control ligand enabled the relative quantification of the enriched proteins. Putative binding partners of SG-3-00802 enriched over transferrin ligand are depicted in a volcano plot (FIG. 3).

[3] = tested on: RENCA tumor model; assay: CXCL10 and CD8a levels in RENCA tumor bearing mice; assay type: in vivo, Balb/c mice; settings: 2.5 mg/kg BID peritumorally for 7d
Experimental: Several mechanism of action related endpoints were also measured in vivo. Balb/c mice were implanted with RENCA cells and treated with candidate lead peptides and control compounds. Dosing occurred during the 1st week only: SG-3-00802 was dosed peritumorally at 2.5 mg/kg BID for 7d, anti-PD-1 was dosed i.p. at 10 mg/kg TIW for a total of 3 doses.

[4] = tested on: Unstimulated human T cells; assay: Transwell T cell migration towards CXCR3 ligands; assay type: cell-based
Experimental: T cell migration towards CXCR3 ligands in the presence of SG-3-00802 and SG-3-06683 was tested using a Transwell migration assay. Suboptimal concentrations of each ligand (CXCR3 ligands CXCL9, CXCL10, and CXCL11) were added to the bottom of the transwell with increasing doses of SG-3-00802 or SG-3-006683. An optimal concentration of ligand was used as positive control, as indicated in the graphs.
Unstimulated human T cells were resuspended in AIM V serum-free media, then were added to the top chamber of a […] polycarbonate Transwell insert and incubated with the indicated concentrations of the ligands and peptides in the bottom chamber for 2.5 hours at 37° C. T cells that migrated to the bottom chamber were collected, stained with anti-CD3 antibody, and counted using Beckman Coulter Cytoflex flow cytometer. 123count eBeads counting beads were added to each of the wells for obtaining the absolute cell counts.

[5] = target: T1, CCR9 (Homo sapiens, UniProt P51686); assay: gpcrMAX PathHunter β-Arrestin Assay; assay type: cell-based
T1 construct: expressed in transfected cells
T1 sequence (P51686 1-369): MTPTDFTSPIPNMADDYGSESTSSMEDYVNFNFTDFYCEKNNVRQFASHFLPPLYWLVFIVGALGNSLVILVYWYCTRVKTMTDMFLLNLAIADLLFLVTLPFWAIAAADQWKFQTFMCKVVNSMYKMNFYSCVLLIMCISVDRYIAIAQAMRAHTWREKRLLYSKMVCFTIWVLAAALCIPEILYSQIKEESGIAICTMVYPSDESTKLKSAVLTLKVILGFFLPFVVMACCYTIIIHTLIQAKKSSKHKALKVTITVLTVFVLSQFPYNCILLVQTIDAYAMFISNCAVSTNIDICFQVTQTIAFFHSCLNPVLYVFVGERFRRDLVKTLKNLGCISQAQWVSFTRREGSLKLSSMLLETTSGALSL
Text: The PathHunter® β-Arrestin Assay monitored activation of a panel of 168 G-protein coupled receptors (GPCRs) with […] activation of the GPCR in agonist and antagonist mode.
where the test sample is the peptide, the vehicle control is DMSO (0% activity), and the control ligand is control compound (100% activity).
Peptides SG-3-00802 and SG-3-05021 were identified as an agonist, an antagonist, a PAM (Positive Allosteric Modulator), or an inverse-agonist. Agonist, antagonist, PAM, and inverse-agonist were identified according to the guidelines in Table 8. The basal activity/noise is a % activity of −20% to 20% for both agonist and antagonist modes. A PAM (Positive Allosteric Modulator) binds to a receptor, at a different site than the agonist, to change the receptor's response to the agonist. An inverse-Agonist is a binding partner with agonistic shutting down of basal activity in the cell. An antagonist antagonizes the activity of a particular binding partner.

For “MKVRPSVKPMCEKCKIIRRKGRVMVICENPKHKQRQG [SG-3-00802]”, the “rejection of newly implanted tumors” value ([1]; peptide alone) was “rejected newly implanted tumors”, the “percent of mice surviving after re-challenge” value ([1]; previously dosed in combination with anti-PD-1) was “increased percent of mice surviving” and the “percent of mice surviving after re-challenge” value ([1]; previously dosed with peptide alone) was “increased percent of mice surviving”. The “# of animals without tumor progression out of re-challenged animals per group (re-challenge study)” value ([1]; re-challenge study) was 2/2, the “rejection of newly implanted tumors” value ([1]; with anti-PD-1 antibody combinatorial treatment) was “rejected newly implanted tumors” and the “binding partners enriched over transferrin ligand” value [2] was “Chemokine receptors”. The “CD8a expression in the tumor” value [3] was “increase in CD8a expression”, the “expression of CXCL10 in the tumor” value [3] was “increased expression of CXCL10 in the tumor” and the “serum levels of CXCL10” value [3] was “increased serum levels of CXCL10”. The “T cell migration to suboptimal level of ligand” value (shortened to “T cell migration”) ([4]; CXCL9, 2.5 hours) was “increased migration”, the “T cell migration” value ([4]; CXCL10, 2.5 hours) was “increased migration” and the “T cell migration” value ([4]; CXCL11, 2.5 hours) was “increased migration”. The “% Agonist Activity” value [5] was 2% and the “% Antagonist Activity” value [5] was −48%.
